Data reported in patent US8907076B2, “Mycobacterial peptide deformylase” (Council of Scientific and Industrial Research, priority 2006, dated 2014).

Target: mPDF (Mycobacterium tuberculosis peptide deformylase) (Mycobacterium tuberculosis, UniProt P9WIJ3)
Conditions: 500 mM, pre-incubation up to 2 h at 30° C., 70 ng protein/reaction
Procedure: The ability of mPDF to deformylate methionine was assessed in a spectrophotometric assay following the method described by Groche et al (Groche et al., Biochem. Biophys. Res. Commun. 246 342-346 1998) with slight modification. The assay was carried out in 50 μl reaction volume mPDF protein (usually 70 ng) in 1× assay buffer (100 mM phosphate buffer, pH 7.4 containing 100 μg/ml catalase) was incubated with the substrate (0 to 80 mM of N-formyl-Met-Ala, Sigma, USA) at 30° C. for 30 min. The reaction was terminated by addition of 50 μl of 4% HClO4 and further incubated (37° C. for 2 h) with TNBSA reagent (0.01% in 0.1M NaHCO3 buffer, pH 8.4). Following addition of 10% SDS (250 μl) and 1N HCl (125 μl), the highly chromogenic derivative generated due to reaction of primary amine with TNBSA was measured at 335 nm (Hermanson G, Bioconjugate techniques, Academic press, San Diego, Calif., 1996, pp, 112-113). The values obtained were corrected by subtracting the blank (all ingredients except mPDF enzyme) readings. Standard curves were prepared with known amounts (0-42.8 nmoles) of methionine.

Sequence of mPDF (Mycobacterium tuberculosis peptide deformylase) (P9WIJ3 whole entry): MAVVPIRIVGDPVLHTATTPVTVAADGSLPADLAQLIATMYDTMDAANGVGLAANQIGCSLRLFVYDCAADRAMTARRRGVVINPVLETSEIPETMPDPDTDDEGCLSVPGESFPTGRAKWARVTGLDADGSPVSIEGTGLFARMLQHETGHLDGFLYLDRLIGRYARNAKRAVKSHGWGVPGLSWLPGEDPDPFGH

`OO` [H2O2, hydrogen peroxide] was tested. Which “effect on the deformylating ability of mPDF compared to the untreated control” value did it give?
The value was “did not show any significant effect”.
